According to ChEMBL document CHEMBL1641553, “Antimalarials based on the dioxane scaffold of plakortin. A concise synthesis and SAR studies” (Bioorg Med Chem, 2011):

Each molecule was assayed on Plasmodium falciparum (assay: Antimalarial activity against chloroquine-sensitive Plasmodium falciparum D10 infected in human A-positive red blood cells after 72 hrs by lactate dehydrogenase assay). Details: D10, 72 h.
Assay type: functional, organism-based

| SMILES | IC50 [µM] |
| --- | --- |
| CCCCC[C@H]1C=C[C@@H](CCO)OO1 | > 30 |
| CCCCCC/C=C/C=C/C(=O)OCC | 0.9 |
| CCCCC[C@@H]1OO[C@H](CC(=O)OCC)[C@@H](Br)[C@@H]1Br | 8.15 |
| CCCCC[C@H]1C=C[C@@H](CC(=O)OCC)OO1 | 1.2 |
| CCCCC[C@@H]1OO[C@H](CC(=O)OCC)[C@H](Br)[C@H]1Br | 9.12 |
| CCCCCC/C=C/C=O [2-NONENAL] | 0.87 |
| CCCCC[C@H]1C=C[C@@H](CC(=O)O)OO1 | 3.33 |
| CCCCC[C@@H]1OO[C@H](CC(=O)OCC)[C@@H]2O[C@@H]21 | > 30 |
| CCCCC[C@@H]1OO[C@H](CC(=O)OCC)[C@H]2O[C@H]21 | 22.1 |
| CCCCC[C@H](O)/C=C\[C@@H](CC(=O)OCC)OCCCC | > 30 |
| CCCCC[C@@H]1OO[C@H](CC(=O)OCC)[C@@H](O)[C@H]1O | > 30 |
| CCCCC[C@H]1C=C[C@@H](CCOC(C)=O)OO1 | 21.9 |

Each molecule was assayed on Plasmodium falciparum (assay: Antimalarial activity against chloroquine-resistant Plasmodium falciparum W2 infected in human A-positive red blood cells after 72 hrs by lactate dehydrogenase assay). Details: W2, 72 h.
Assay type: functional, organism-based

| SMILES | IC50 [µM] |
| --- | --- |
| CCCCC[C@H]1C=C[C@@H](CCO)OO1 | > 30 |
| CCCCCC/C=C/C=C/C(=O)OCC | 0.43 |
| CCCCC[C@@H]1OO[C@H](CC(=O)OCC)[C@@H](Br)[C@@H]1Br | 5.11 |
| CCCCC[C@H]1C=C[C@@H](CC(=O)OCC)OO1 | 1.49 |
| CCCCC[C@@H]1OO[C@H](CC(=O)OCC)[C@H](Br)[C@H]1Br | 5.65 |
| CCCCCC/C=C/C=O [2-NONENAL] | 0.39 |
| CCCCC[C@H]1C=C[C@@H](CC(=O)O)OO1 | 3.42 |
| CCCCC[C@@H]1OO[C@H](CC(=O)OCC)[C@@H]2O[C@@H]21 | > 30 |
| CCCCC[C@@H]1OO[C@H](CC(=O)OCC)[C@H]2O[C@H]21 | 10.3 |
| CCCCC[C@H](O)/C=C\[C@@H](CC(=O)OCC)OCCCC | > 30 |
| CCCCC[C@@H]1OO[C@H](CC(=O)OCC)[C@@H](O)[C@H]1O | > 30 |
| CCCCC[C@H]1C=C[C@@H](CCOC(C)=O)OO1 | 12.5 |
